Experimental findings from US7521447B2, “P38 inhibitors and methods of use thereof” (Array Biopharma Inc., priority 2003, dated 2009) are described below.

One assay concerns the target activated p38α enzyme (Homo sapiens, UniProt Q16539). The assay can be described thus: p38 Biochemical Assay. On the set-up: key: An “active” compound is defined as a compound having an IC50 below 500 nM. To be noted: 5 nM activated p38α, 1 uM ATF-2 substrate, 10 μM ATP. The procedure: P38 activity was assayed at room temperature in a 100 μl reaction containing 5 nM activated p38α enzyme and 1 uM ATF-2 (Activating Transcription Factor 2 fusion protein) as the substrate in 25 mM HEPES (pH 7.4), 100 μM Vanadate, 1 mM DTT, 10 mM MgCl2 and 10 μM [[…]-^33P]-ATP (˜0.1 μCi P^33/reaction). The reaction was terminated after 30-40 minutes by adding 25% TCA, let stand for 5 minutes and then transferred directly to a GF-B membrane filter plate. The filter was washed twice for 30 seconds with 0.5% phosphoric acid using a Tomtec Mach III Automated Harvestor. After washing, the vacuum was continued for 30 seconds to dry the filter. Approximately 30 μl of scintillant was added per well to the filter plate and then read in a Liquid Scintillation Counter (Packard TopCount HTS).

For assay [1], the system named is LPS-induced TNF-α secretion from human peripheral blood mononuclear cells (PBMC). The assay can be described thus: PBMC Assay: inhibition of LPS-induced TNF-α secretion. It is filed as cell-based. On the set-up: key: An “active” compound is defined as a compound having an IC50 below 500 nM. The settings on record: LPS-stimulated human PBMC, TNF-α ELISA. As for the experimental part: The ability of compounds of this invention to inhibit TNF-α production was assessed by using human peripheral blood mononuclear cells (“PBMC”) which synthesize and secrete TNF-α when stimulated with lipopolysaccharide.
Compound test solutions were made by making 5 fold serial dilutions in DMSO, which dilutions were then diluted to 5× stocks by diluting with MEM, 2% heat inactivated fetal bovine serum (“FBS”), 20 mM HEPES, 2 mM L-glutamine, and 1% penicillin/streptomycin.
PBMC's were isolated from human blood as follows. Whole blood samples were collected from human volunteers into Vacutainer™ CPT from Becton Dickinson. Tubes were mixed and centrifuged at room temperature (18-25° C.) in a horizontal rotor for a minimum of 15 minutes at 1500-1800 RCF (relative centrifugal force). For each donor, the buffy coat layers were pooled into a single tube and washed twice with phosphate buffered saline (“PBS”). The cell pellet was resuspended in MEM, 2% heat inactivated fetal bovine serum (“FBS”), 20 mM HEPES, 2 mM L-glutamine, and 1% penicillin/streptomycin. Total cell number was determined using a hemocytometer and the cell suspension was adjusted to 2×10^6 cells/mL.
0.1 mL of cell suspension was added to each well of a 96-well cell culture plate. 30 μL of a compound test solution was added, and the cells were incubated in a 37° C./5% CO2 incubator for 1 hour. 20 μL of 7.5 ng/mL lipopolysaccharide (LPS E. Coli K-235) was then added to each well, and the cells were returned to the 37° C./5% CO2 incubator for 16-20 hours. The cells were centrifuged for 15 minutes at 1100 RCF. Approximately 0.12 mL of the supernatant was transferred into a clean 96 well polypropylene plate. The samples were either assayed immediately or were stored at −80° C. until ready for assay. TNF-α levels were determined in each sample using a human TNF-α ELISA assay such as that described below.
TNF-α levels were determined using the following assay. TNF-alpha antibody coated plates were prepared by adding 150 μL of 2 μg/mL anti-TNF-α purified mouse monoclonal IgG in Carbonate-Bicarbonate buffer (BupH™ Carbonate-Bicarbonate Buffer Pack) to wells of a 96-well Immulon 4 plate (Immulon 4 ELISA Flat Bottom Plate; Dynex, catalog number 011-010-3855) and incubated overnight at 2-8° C. Coating solution was removed and 200 μL of “blocking buffer” (20 mM HEPES pH 7.4, 150 mM NaCl, 2% BSA) was added and plates were stored 2-8° C. until ready to use. A ten-point recombinant human TNF-α standard curve was prepared by a 1:2 serial dilution in “sample diluent” (20 mM HEPES, pH 7.4, 150 mM NaCl, 2 mM MgCl2, 1% BSA) with a top concentration of 6000 pg/mL.
Blocking solution was removed from TNF-α ELISA plates by washing five times with 300 μL of “wash buffer” (20 mM HEPES, pH 7.4, 150 mM NaCl, 2 mM MgCl2, 0.02% Tween-20). 50 μL of “sample diluent” was added to all wells, and then either 50 μL of a TNF-α standard curve solution or test compound supernatant was added to all wells. The plate was incubated at room temperature for one hour with shaking (300 rpm). The plate was washed wash five times with 300 μL “wash buffer”. 100 μL of 0.2 μg/mL biotinylated goat anti-human TNF-α in “antibody diluent” (20 mM HEPES, pH 7.4, 150 mM NaCl, 2 mM MgCl2, 1% BSA, 0.02% Tween-20) was added per well, and the plate was incubated at room temperature for one hour with shaking (300 rpm). The plate was washed wash five times with 300 μL “wash buffer” per well. 100 μL of 0.02 μg/mL streptavidin alkaline phosphatase in “antibody diluent” was added per well, and the plate was incubated at room temperature for one hour with shaking (300 rpm). The plate was washed wash five times with 300 μL wash buffer per well. 200 μL of 1 mg/mL pNPP (p-nitrophenyl phosphate) in diethanolamine buffer with 0.5 mM MgCl2 was added per well, and the plate was incubated for 30 to 45 minutes at room temperature with shaking (300 rpm). […]
(An ELISA detects its analyte on a solid surface through an enzyme-linked reagent.)

Sequence of activated p38α enzyme (Q16539 whole entry, the tested form may be a part): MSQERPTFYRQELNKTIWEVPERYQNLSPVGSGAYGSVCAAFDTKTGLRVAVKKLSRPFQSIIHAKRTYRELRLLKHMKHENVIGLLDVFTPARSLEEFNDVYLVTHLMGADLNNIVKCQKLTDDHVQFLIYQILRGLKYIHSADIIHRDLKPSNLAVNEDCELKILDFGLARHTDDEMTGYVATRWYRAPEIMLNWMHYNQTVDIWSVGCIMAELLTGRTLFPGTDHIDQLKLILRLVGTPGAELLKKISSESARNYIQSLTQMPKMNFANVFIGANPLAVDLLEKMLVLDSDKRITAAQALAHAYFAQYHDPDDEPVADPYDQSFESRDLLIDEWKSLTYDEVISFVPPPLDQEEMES

As to `CC(C)Cn1ncc2cc(Nc3ccc(F)cc3)ccc21` [Compound 2h-2, (4-fluorophenyl)-(1-isobutyl-1H-indazol-5-yl)-amine], the “p38 Inhibition IC50 (nM)” value at activated p38α enzyme was “active”. In assay [1], the “PBMC IC50 (nM)” value is listed as “active”.

As for `Cc1ccccc1Nc1ccc2c(cnn2CC(C)C)c1` [Compound 2h-10, (1-isobutyl-1H-indazol-5-yl)-O-tolyl-amine], on activated p38α enzyme, the “p38 Inhibition IC50 (nM)” value is “active”. For the same compound, the “PBMC IC50 (nM)” value in assay [1] was “active”.

As for `CC(C)Cn1ncc2cc(C(O)c3ccc(F)cc3F)ccc21` (stereo not shown) [Compound 4f-1, (2,4-difluorophenyl)-(1-isobutyl-1H-indazol-5-yl)-methanol], the “p38 Inhibition IC50 (nM)” value at activated p38α enzyme is listed as “active”. In addition, in assay [1], the “PBMC IC50 (nM)” value is “active”.

As to `CC(C)Cn1ncc2cc(C(O)c3ccc(F)cc3)ccc21` (stereo not shown) [Compound 4f-2, (4-fluorophenyl)-(1-isobutyl-1H-indazol-5-yl)-methanol], the “p38 Inhibition IC50 (nM)” value on activated p38α enzyme is reported as “active”. In addition, in assay [1], the “PBMC IC50 (nM)” value is “active”.

For the compound `CC(C)Cn1ncc2cc(C(O)c3ccc(Cl)cc3Cl)ccc21` (stereo not shown) [Compound 4f-9, (2,4-dichlorophenyl)-(1-isobutyl-1H-indazol-5-yl)-methanol], the “p38 Inhibition IC50 (nM)” value on activated p38α enzyme was “active”. Also, in assay [1], the “PBMC IC50 (nM)” value is “inactive”.

Consider `CC(C)Cn1ncc2cc(C(=O)c3ccc(F)cc3F)ccc21` [Compound 5f-1, (2,4-difluorophenyl)-(1-isobutyl-1H-indazol-5-yl)-methanone], for which the “p38 Inhibition IC50 (nM)” value on activated p38α enzyme is reported as “active”. For the same compound, the “PBMC IC50 (nM)” value in assay [1] is “active”.

Take `CC(C)Cn1ncc2cc(C(=O)c3ccc(F)cc3)ccc21` [Compound 5f-2, (4-fluorophenyl)-(1-isobutyl-1H-indazol-5-yl)-methanone]: the “p38 Inhibition IC50 (nM)” value at activated p38α enzyme is “active”. Moreover, the “PBMC IC50 (nM)” value in assay [1] is listed as “active”.

For the compound `CC(C)Cn1ncc2cc(C(=O)c3ccc(Cl)cc3F)ccc21` [Compound 5f-7, (4-chloro-2-fluorophenyl)-(1-isobutyl-1H-indazol-5-yl)-methanone], the “p38 Inhibition IC50 (nM)” value at activated p38α enzyme is recorded as “active”. For the same compound, the “PBMC IC50 (nM)” value in assay [1] is listed as “active”.

In the case of `CC(C)Cn1ncc2cc(C(=O)c3ccc(Cl)cc3Cl)ccc21` [Compound 5f-9, (2,4-dichlorophenyl)-(1-isobutyl-1H-indazol-5-yl)-methanone], the “p38 Inhibition IC50 (nM)” value at activated p38α enzyme is listed as “active”. For the same compound, in assay [1], the “PBMC IC50 (nM)” value is on record as “active”.

As for `Cc1ccccc1C(=O)c1ccc2c(cnn2CC(C)C)c1` [Compound 5f-10, (1-isobutyl-1H-indazol-5-yl)-O-tolyl-methanone], the “p38 Inhibition IC50 (nM)” value at activated p38α enzyme is listed as “active”. The “PBMC IC50 (nM)” value in assay [1] is “active”.

As to `CC(C)Cn1ncc2cc(C(=NO)c3ccc(F)cc3F)ccc21` [Compound 7f-1, (2,4-difluorophenyl)-(1-isobutyl-1H-indazol-5-yl)-methanone oxime], the “p38 Inhibition IC50 (nM)” value on activated p38α enzyme was “active”. In assay [1], the “PBMC IC50 (nM)” value was “active”.

Consider `CC(C)Cn1ncc2cc(C(=NO)c3ccc(F)cc3)ccc21` [Compound 7f-2, (4-fluorophenyl)-(1-isobutyl-1H-indazol-5-yl)-methanone oxime], for which the “p38 Inhibition IC50 (nM)” value at activated p38α enzyme is recorded as “active”. Besides, the “PBMC IC50 (nM)” value in assay [1] is “active”.

As for `CCON=C(c1ccc2c(cnn2CC(C)C)c1)c1ccc(F)cc1F` [Compound 7f-3, (2,4-difluorophenyl)-(1-isobutyl-1H-indazol-5-yl)-methanone O-ethyl-oxime], at activated p38α enzyme, the “p38 Inhibition IC50 (nM)” value was “active”. Besides, the “PBMC IC50 (nM)” value in assay [1] is recorded as “active”.

As for `CC(C)Cn1ncc2cc(Oc3ccc(F)cc3)c(C(=O)NCCN(C)C)cc21` [Compound 11g-10, 5-(4-fluorophenoxy)-1-isobutyl-1H-indazole-6-carboxylic acid (2-dimethylaminoethyl)-amide], the “p38 Inhibition IC50 (nM)” value at activated p38α enzyme is “active”. For the same compound, the “PBMC IC50 (nM)” value in assay [1] is recorded as “active”.
